This passage reports CC50/EC50, EC50 and CC50 results from patent publication US8232278B2 (Gilead Sciences, Inc., priority 2005, dated 2012).

Where two headings read alike, the source gives them in different places.

In series [1] the test system is HCV replicon. Description: Anti-HCV assay / replicon assay (EC50, luciferase read-out). The class given is cell-based, hepatitis C virus (HCV). Particulars: for CC50/EC50: CC50/EC50 ratio (selectivity index); for EC50: Hepatitis C virus. In short, it runs like this: (§1)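 Huh-7 cells carrying an HCV replicon, 6000 per well, were exposed to 3-fold serial compound dilutions (0.5% DMSO final where DMSO was used) for 3 days at 37 °C. EC50 was read by luciferase after cell lysis; CC50 was taken as 50% inhibition of cell growth.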
A general note: A replicon is a self-replicating genome or part of one, used to study replication in cells.

The nature of series [2]: CC50 assay in Huh-7 HCV replicon cells (CellTiter-Glo). The class given is cell-based, human. Particulars: human, 50% cytostatic concentration. In short, it runs like this: as §1
[3] abbreviates: 72 h, human hepatoma Huh-7 cell line harbouring a HCV replicon, 3 days, luciferase luminescence, read-out: EC50.

With `COCCSc1nc(N)nc2ccc(-c3ccc(F)cc3)nc12` [Example 395], the CC50/EC50 in series [1] is 278. In series [1] (Huh-7, 72 h), the concentration for a half-maximal effect (EC50) came to 49 nM. The compound further displayed a CC50 at 3 days in series [2] of 13600 nM.
As to `CCNc1nc(N)nc2ccc(-c3ccc(F)cc3)nc12` [Example 402, 2-amino-4-ethylamino-6-(4-fluorophenyl)pyrido[3,2-d]pyrimidine], the CC50/EC50 in series [1] is given as 80. Besides, in series [1] (setting [3]), the EC50 came out at 376 nM. Moreover, in series [2], the CC50 at 3 days was determined as 30000 nM.
In the same order, the values of `COc1ccc(-c2ccc3nc(N)nc(N4CCCN(C(=O)Nc5cccc(C)c5)CC4)c3n2)cc1OC` [Example 241, 2-amino-4-[(N-3-methylphenylcarbamoyl)-homopiperazin-1-yl]-6-(3,4-dimethoxyphenyl)-pyrido[3,2-d]pyrimidine] are 218, 11 nM and 2400 nM.
In the same order, the values of `COc1ccc(-c2ccc3nc(N)nc(NC4CCCN(C(=O)OC(C)(C)C)C4)c3n2)cc1OC` (stereo not drawn) [Example 247, 2-amino-4-[(1-Boc-piperidin-3-yl)amino]-6-(3,4-dimethoxyphenyl)-pyrido[3,2-d]pyrimidine] are 238, 22 nM and 5200 nM.
For `CC(=O)Nc1nc(OC(C)C)c2nc(-c3ccc(F)cc3)ccc2n1` [Example 285, 2-acetamido-4-isopropoxy-6-(p-fluorophenyl)-pyrido[3,2-d]pyrimidine] the same measures were 492, 51 nM and 25100 nM.
As for `CCCOc1nc(N)nc2ccc(-c3ccc(F)cc3)nc12` [Example 283, 2-amino-4-n-propoxy-6-(p-fluorophenyl)-pyrido[3,2-d]pyrimidine], in series [1], the CC50/EC50 amounted to 221. For the same compound, the EC50 in series [1] (setting [3]) amounted to 95 nM. Half-maximal cytotoxicity in series [2] (CC50 at 3 days) was put at 21000 nM.
For the compound `Nc1nc(OCCF)c2nc(-c3ccc(F)cc3)ccc2n1` [Example 417, 2-amino-4-(2-fluoro-ethoxy)-6-(4-fluorophenyl)pyrido[3,2-d]pyrimidine], the CC50/EC50 in series [1] was 2282. The EC50 in series [1] (setting [3]) was 11 nM. In series [2], this compound yielded a CC50 at 3 days of 25100 nM.
For `CC(C)COc1nc(N)nc2ccc(-c3ccc(F)cc3)nc12` [Example 293, 2-amino-4-isobutoxy-6-(p-fluorophenyl)-pyrido[3,2-d]pyrimidine] the same measures were 68, 370 nM and 25100 nM.
For `COCCNc1nc(NC(C)=O)nc2ccc(-c3ccc(F)cc3)nc12` [Example 398, 2-acetamido-4-(2-methoxy-ethylamino)-6-(4-fluorophenyl)pyrido[3,2-d]pyrimidine] the same measures were 61, 410 nM and 25100 nM.
For `CCCCCOc1nc(N)nc2ccc(-c3cccc(F)c3)nc12` [Example 298, 2-amino-4-n-pentyloxy-6-(m-fluorophenyl)-pyrido[3,2-d]pyrimidine] the same measures were 77, 365 nM and 28000 nM.
Consider `Nc1nc(N2CCN(C(=O)COc3ccc(Cl)cc3Cl)CC2)c2nc(-c3ccc(F)cc3)ccc2n1` [Example 372, 2-amino-4-[4-(2,4-dichlorophenoxy-acetyl)piperazin-1-yl]-6-(4-fluorophenyl)-pyrido[3,2-d]pyrimidine], for which the CC50/EC50 in series [1] worked out at 78. Moreover, in series [1] (setting [3]), the EC50 turned out to be 320 nM. This compound registered a cytotoxic concentration (CC50) at 3 days in series [2] of 25100 nM.
In the same order, the values of `COc1nc(N)nc2ccc(-c3ccc(F)cc3)nc12` [Example 504, 6-(4-fluoro-phenyl)-4-methoxy-pyrido[3,2-d]pyrimidin-2-ylamine] are 434, 33 nM and 14300 nM.
Turning to `Nc1nc(OCC2CC2)c2nc(-c3ccc(F)cc3)ccc2n1` [Example 326, 2-amino-4-(cyclopropylmethyloxy)-6-(4-fluorophenyl)pyrido[3,2-d]pyrimidine], in series [1], the CC50/EC50 stood at 254. Moreover, the EC50 in series [1] (setting [3]) amounted to 99 nM. Moreover, it took 25100 nM to reach half-maximal cytotoxicity in series [2] (CC50 at 3 days).
As to `CCOc1nc(N)nc2ccc(-c3ccc(OC)nc3)nc12` [Example 546], the CC50/EC50 in series [1] is 68. For the same compound, the EC50 in series [1] (setting [3]) was determined as 370 nM. This compound also came in with a CC50 at 3 days in series [2] of 25100 nM.
In the same order, the values of `Cc1cccc(NC(=O)N2CCN(c3nc(N)nc4ccc(-c5ccc6c(c5)OCO6)nc34)CC2)c1` [Example 190, 2-amino-4-[N-(3-methyl-phenyl-carbamoyl)-piperazin-1-yl]-6-(3,4-methylenedioxyphenyl)-pyrido[3,2-d]pyrimidine] are 51, 12 nM and 610 nM.
Turning to `CC(=O)Nc1ccc(-c2ccc3nc(N)nc(OCC4CC4)c3n2)cc1` [Example 356, 2-amino-4-(cyclopropylmethyloxy)-6-(p-acetamidophenyl)-pyrido(3,2-d)pyrimidine], the CC50/EC50 in series [1] is recorded as 87. In addition, in series [1] (setting [3]), the EC50 was 290 nM. Besides, the midpoint of cytotoxicity in series [2], the CC50 at 3 days, lay at 25100 nM.
In the same order, the values of `CCCCOc1nc(N)nc2ccc(-c3ccc(F)cc3)nc12` [Example 290, 2-amino-4-n-butoxy-6-(p-fluorophenyl)-pyrido[3,2-d]pyrimidine] are 63, 340 nM and 21300 nM.
For the compound `COc1ccc(-c2ccc3nc(N)nc(N4CCN(CC(=O)N5CCCC5)CC4)c3n2)cc1OC` [Example 263, 2-amino-4-(N-pyrrolidinyl-acetamid-2-yl-piperazin-1-yl)-6-(3,4-dimethoxyphenyl)pyrido[3,2-d]pyrimidine], the CC50/EC50 in series [1] was found to be 102. In addition, the half-maximal effective concentration (EC50) in series [1] (setting [3]) came out at 28 nM. Besides, it took 2900 nM to reach half-maximal cytotoxicity in series [2] (CC50 at 3 days).
In the same order, the values of `CCOc1nc(N)nc2ccc(-c3ccccc3F)nc12` [Example 279, 2-amino-4-ethoxy-6-(o-fluorophenyl)-pyrido[3,2-d]pyrimidine] are 54, 690 nM and 37500 nM.
For `CCOc1cccc(-c2ccc3nc(N)nc(OCC)c3n2)c1` [Example 549] the same measures were 53, 470 nM and 25100 nM.

In general, EC50 refers to the concentration needed to bring the measured effect to its halfway point. As usually defined, the CC50 is the concentration giving 50% cytotoxicity. A lower CC50 goes with harm at low concentration.
